Test system: BaF3
Assay: Antitumor activity against mouse BaF3 cells harboring EGFR L858R/C797S mutant allografted in Balb/c nude mouse assessed as in tumor growth inhibition at 30 mg/kg administered twice daily measured on day 20
Type: functional
Conditions: BaF3, 480 h, time 20 day, read-out: TGI

SMILES	inhibition in vivo at 30 mg/kg
Cc1c(-c2ccc(N3CCOCC3)cc2)cc(C(F)F)c2cn(C(C(=O)Nc3nccs3)c3ncn4c3CCC43CC3)nc12 (stereo unspecified)	26%

Test system: not listed separately
Assay: Intrinsic clearance in human liver hepatocytes measured per 10^6 cells incubated upto 2 hrs by LC-MS/MS analysis
Type: ADME, cell-based, Hepatocyte
Conditions: read-out: CLH

SMILES	hepatocyte CLint
O=C(Nc1nccs1)C(c1ncn2c1CCC2)N1Cc2c(cc(C#Cc3ccc(CN4CCC(CO)CC4)cc3)cc2C(F)F)C1=O (stereo unspecified)	3.1 µL/min/1e6 cells
O=C(Nc1nccs1)C(c1ncn2c1CCC2)N1Cc2c(Cl)cccc2C1=O (stereo unspecified)	7 µL/min/1e6 cells
O=C(Nc1nccs1)C(c1ncn2c1CCC2)N1Cc2c(F)cc(C#Cc3ccc(CN4CCC(O)CC4)cc3)cc2C1=O (stereo unspecified)	1.6 µL/min/1e6 cells
O=C(Nc1nccs1)C(c1cc(F)ccc1O)N1Cc2ccccc2C1=O (stereo unspecified)	67 µL/min/1e6 cells
O=C(Nc1nccs1)C(c1ncn2c1CCC2)N1Cc2c(cc(C#Cc3ccc(CN4CCC(CO)CC4)cc3)cc2C(F)(F)F)C1=O (stereo unspecified)	3.3 µL/min/1e6 cells
CC1(C)CCc2c(C(C(=O)Nc3nccs3)N3Cc4c(cc(C#Cc5ccc(CN6CCC(CO)CC6)cc5)cc4C(F)F)C3=O)ncn21 (stereo unspecified)	5 µL/min/1e6 cells

Target: Epidermal growth factor receptor (Homo sapiens, UniProt P00533, C797S/L858R)
Sequence (P00533 25-1210 C797S/L858R limits assumed): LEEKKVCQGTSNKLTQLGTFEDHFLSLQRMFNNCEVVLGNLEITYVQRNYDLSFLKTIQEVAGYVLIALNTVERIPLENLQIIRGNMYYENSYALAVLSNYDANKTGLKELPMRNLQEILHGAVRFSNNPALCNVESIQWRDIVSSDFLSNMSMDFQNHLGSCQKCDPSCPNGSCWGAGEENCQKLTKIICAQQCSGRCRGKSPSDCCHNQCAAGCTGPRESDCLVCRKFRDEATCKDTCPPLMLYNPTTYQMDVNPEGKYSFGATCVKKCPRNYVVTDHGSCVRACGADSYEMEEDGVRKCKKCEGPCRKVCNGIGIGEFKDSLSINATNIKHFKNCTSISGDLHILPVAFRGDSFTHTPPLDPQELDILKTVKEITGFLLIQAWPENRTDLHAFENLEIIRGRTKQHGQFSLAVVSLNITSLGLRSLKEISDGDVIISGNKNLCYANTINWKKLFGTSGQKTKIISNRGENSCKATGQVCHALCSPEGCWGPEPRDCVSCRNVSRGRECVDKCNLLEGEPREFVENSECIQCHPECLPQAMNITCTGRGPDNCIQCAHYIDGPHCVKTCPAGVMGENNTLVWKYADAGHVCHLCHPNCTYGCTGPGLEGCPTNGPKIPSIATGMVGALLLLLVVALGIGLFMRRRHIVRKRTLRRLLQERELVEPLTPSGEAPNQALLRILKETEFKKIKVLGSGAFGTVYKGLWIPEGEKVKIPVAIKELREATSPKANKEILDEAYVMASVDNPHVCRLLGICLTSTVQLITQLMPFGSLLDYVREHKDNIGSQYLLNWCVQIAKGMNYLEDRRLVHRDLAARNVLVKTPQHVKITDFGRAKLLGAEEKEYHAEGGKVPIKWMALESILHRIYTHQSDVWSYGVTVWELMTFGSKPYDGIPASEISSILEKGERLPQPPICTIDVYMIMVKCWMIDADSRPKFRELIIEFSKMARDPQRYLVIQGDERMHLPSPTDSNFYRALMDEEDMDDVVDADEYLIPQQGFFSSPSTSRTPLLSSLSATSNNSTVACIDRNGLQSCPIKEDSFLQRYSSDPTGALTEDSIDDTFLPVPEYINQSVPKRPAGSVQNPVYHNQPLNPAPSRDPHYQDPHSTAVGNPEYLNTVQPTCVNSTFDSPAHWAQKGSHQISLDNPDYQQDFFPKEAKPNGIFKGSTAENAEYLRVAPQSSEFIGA
Conditions: not given

SMILES	IC50
O=C(Nc1nccs1)C(c1ncn2c1CCC2)N1Cc2c(cc(C#Cc3ccc(CN4CCC(CO)CC4)cc3)cc2C(F)F)C1=O (stereo unspecified)	13 nM
O=C(Nc1nccs1)C(c1ncn2c1CCC2)N1Cc2c(Cl)cccc2C1=O (stereo unspecified)	183 nM
O=C(Nc1nccs1)C(c1ncn2c1CCC2)N1Cc2c(F)cc(C#Cc3ccc(CN4CCC(O)CC4)cc3)cc2C1=O (stereo unspecified)	33 nM
O=C(Nc1nccs1)C(c1ncn2c1CCC2)N1Cc2c(cc(C#Cc3ccc(CN4CCC(CO)CC4)cc3)cc2C(F)(F)F)C1=O (stereo unspecified)	26 nM
CC1(C)CCc2c(C(C(=O)Nc3nccs3)N3Cc4c(cc(C#Cc5ccc(CN6CCC(CO)CC6)cc5)cc4C(F)F)C3=O)ncn21 (stereo unspecified)	12 nM

Target: Epidermal growth factor receptor (Homo sapiens, UniProt P00533, C797S/L858R/T790M)
Sequence (P00533 25-1210 T790M/C797S/L858R limits assumed): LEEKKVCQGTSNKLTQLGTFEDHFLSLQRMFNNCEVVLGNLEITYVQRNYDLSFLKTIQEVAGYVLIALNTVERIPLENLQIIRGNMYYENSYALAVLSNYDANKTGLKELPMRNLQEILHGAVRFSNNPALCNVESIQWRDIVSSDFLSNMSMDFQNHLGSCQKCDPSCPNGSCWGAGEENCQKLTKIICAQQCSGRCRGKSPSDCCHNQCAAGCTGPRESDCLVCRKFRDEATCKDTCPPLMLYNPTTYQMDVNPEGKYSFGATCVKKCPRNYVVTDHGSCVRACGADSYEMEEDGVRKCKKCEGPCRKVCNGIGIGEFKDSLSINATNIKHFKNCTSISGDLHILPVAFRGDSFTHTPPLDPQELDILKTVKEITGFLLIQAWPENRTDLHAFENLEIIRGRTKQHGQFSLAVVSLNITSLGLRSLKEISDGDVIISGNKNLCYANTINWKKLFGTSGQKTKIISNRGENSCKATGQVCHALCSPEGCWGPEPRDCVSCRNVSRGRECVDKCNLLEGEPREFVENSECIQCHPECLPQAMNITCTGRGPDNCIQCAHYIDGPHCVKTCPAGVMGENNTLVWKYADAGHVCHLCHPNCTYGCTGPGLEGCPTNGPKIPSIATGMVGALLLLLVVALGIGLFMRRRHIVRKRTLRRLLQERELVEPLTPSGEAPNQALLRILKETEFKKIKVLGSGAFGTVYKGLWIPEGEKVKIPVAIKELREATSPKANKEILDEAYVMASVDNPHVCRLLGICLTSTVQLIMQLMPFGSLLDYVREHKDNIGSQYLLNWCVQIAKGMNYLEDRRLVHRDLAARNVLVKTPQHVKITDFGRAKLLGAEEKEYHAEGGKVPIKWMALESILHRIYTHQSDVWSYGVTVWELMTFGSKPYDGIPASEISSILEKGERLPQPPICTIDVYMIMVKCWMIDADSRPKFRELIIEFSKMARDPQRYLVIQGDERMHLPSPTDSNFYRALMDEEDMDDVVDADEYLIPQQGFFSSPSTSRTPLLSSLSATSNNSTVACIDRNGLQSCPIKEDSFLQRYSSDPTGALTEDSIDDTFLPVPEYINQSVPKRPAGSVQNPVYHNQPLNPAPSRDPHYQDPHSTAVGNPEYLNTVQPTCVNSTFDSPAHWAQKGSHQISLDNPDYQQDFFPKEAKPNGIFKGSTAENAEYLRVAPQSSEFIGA
Conditions: not given

SMILES	IC50
O=C(Nc1nccs1)C(c1ncn2c1CCC2)N1Cc2c(cc(C#Cc3ccc(CN4CCC(CO)CC4)cc3)cc2C(F)F)C1=O (stereo unspecified)	4 nM
O=C(Nc1nccs1)C(c1ncn2c1CCC2)N1Cc2c(Cl)cccc2C1=O (stereo unspecified)	4 nM
O=C(Nc1nccs1)C(c1ncn2c1CCC2)N1Cc2c(F)cc(C#Cc3ccc(CN4CCC(O)CC4)cc3)cc2C1=O (stereo unspecified)	5 nM
O=C(Nc1nccs1)C(c1ncn2c1CCC2)N1Cc2c(cc(C#Cc3ccc(CN4CCC(CO)CC4)cc3)cc2C(F)(F)F)C1=O (stereo unspecified)	3 nM
Cc1c(-c2ccc(N3CCOCC3)cc2)cc(C(F)F)c2cn(C(C(=O)Nc3nccs3)c3ncn4c3CCC43CC3)nc12 (stereo unspecified)	10 nM
CC1(C)CCc2c(C(C(=O)Nc3nccs3)N3Cc4c(cc(C#Cc5ccc(CN6CCC(CO)CC6)cc5)cc4C(F)F)C3=O)ncn21 (stereo unspecified)	4 nM

Test system: BaF3
Assay: Cytotoxicity against mouse BaF3 cells expressing EGFR L858R/T790M/C797S mutant assessed as reduction in cell viability measured after 72 hrs by cell titre glo luminescence assay
Type: functional, cell-based
Conditions: BaF3, 72 h

SMILES	IC50
O=C(Nc1nccs1)C(c1ncn2c1CCC2)N1Cc2c(cc(C#Cc3ccc(CN4CCC(CO)CC4)cc3)cc2C(F)F)C1=O (stereo unspecified)	1 nM
O=C(Nc1nccs1)C(c1ncn2c1CCC2)N1Cc2c(F)cc(C#Cc3ccc(CN4CCC(O)CC4)cc3)cc2C1=O (stereo unspecified)	5 nM
O=C(Nc1nccs1)C(c1ncn2c1CCC2)N1Cc2c(cc(C#Cc3ccc(CN4CCC(CO)CC4)cc3)cc2C(F)(F)F)C1=O (stereo unspecified)	0.5 nM
CC1(C)CCc2c(C(C(=O)Nc3nccs3)N3Cc4c(cc(C#Cc5ccc(CN6CCC(CO)CC6)cc5)cc4C(F)F)C3=O)ncn21 (stereo unspecified)	1 nM

Same assay, conditions: BaF3, time 72 hrs

SMILES	IC90
O=C(Nc1nccs1)C(c1ncn2c1CCC2)N1Cc2c(cc(C#Cc3ccc(CN4CCC(CO)CC4)cc3)cc2C(F)F)C1=O (stereo unspecified)	3 nM
O=C(Nc1nccs1)C(c1ncn2c1CCC2)N1Cc2c(F)cc(C#Cc3ccc(CN4CCC(O)CC4)cc3)cc2C1=O (stereo unspecified)	13 nM
O=C(Nc1nccs1)C(c1ncn2c1CCC2)N1Cc2c(cc(C#Cc3ccc(CN4CCC(CO)CC4)cc3)cc2C(F)(F)F)C1=O (stereo unspecified)	1 nM
CC1(C)CCc2c(C(C(=O)Nc3nccs3)N3Cc4c(cc(C#Cc5ccc(CN6CCC(CO)CC6)cc5)cc4C(F)F)C3=O)ncn21 (stereo unspecified)	3 nM

Test system: BaF3
Assay: Cytotoxicity against mouse BaF3 cells harboring EGFR L858R/C797S mutant assessed as reduction in cell viability measured after 72 hrs by cell titre glo luminescence assay
Type: functional, cell-based
Conditions: BaF3, 72 h

SMILES	IC50
O=C(Nc1nccs1)C(c1ncn2c1CCC2)N1Cc2c(cc(C#Cc3ccc(CN4CCC(CO)CC4)cc3)cc2C(F)F)C1=O (stereo unspecified)	4 nM
O=C(Nc1nccs1)C(c1ncn2c1CCC2)N1Cc2c(F)cc(C#Cc3ccc(CN4CCC(O)CC4)cc3)cc2C1=O (stereo unspecified)	72 nM
O=C(Nc1nccs1)C(c1ncn2c1CCC2)N1Cc2c(cc(C#Cc3ccc(CN4CCC(CO)CC4)cc3)cc2C(F)(F)F)C1=O (stereo unspecified)	2 nM
Cc1c(-c2ccc(N3CCOCC3)cc2)cc(C(F)F)c2cn(C(C(=O)Nc3nccs3)c3ncn4c3CCC43CC3)nc12 (stereo unspecified)	3 nM
CC1(C)CCc2c(C(C(=O)Nc3nccs3)N3Cc4c(cc(C#Cc5ccc(CN6CCC(CO)CC6)cc5)cc4C(F)F)C3=O)ncn21 (stereo unspecified)	1 nM

Same assay, conditions: BaF3, time 72 hrs

SMILES	IC90
O=C(Nc1nccs1)C(c1ncn2c1CCC2)N1Cc2c(cc(C#Cc3ccc(CN4CCC(CO)CC4)cc3)cc2C(F)F)C1=O (stereo unspecified)	12 nM
O=C(Nc1nccs1)C(c1ncn2c1CCC2)N1Cc2c(F)cc(C#Cc3ccc(CN4CCC(O)CC4)cc3)cc2C1=O (stereo unspecified)	285 nM
O=C(Nc1nccs1)C(c1ncn2c1CCC2)N1Cc2c(cc(C#Cc3ccc(CN4CCC(CO)CC4)cc3)cc2C(F)(F)F)C1=O (stereo unspecified)	5 nM
CC1(C)CCc2c(C(C(=O)Nc3nccs3)N3Cc4c(cc(C#Cc5ccc(CN6CCC(CO)CC6)cc5)cc4C(F)F)C3=O)ncn21 (stereo unspecified)	2 nM

Test system: not listed separately
Assay: Intrinsic clearance in mouse liver hepatocytes measured per 10^6 cells incubated upto 2 hrs by LC-MS/MS analysis
Type: ADME, cell-based, Hepatocyte
Conditions: read-out: CLH

SMILES	hepatocyte CLint
O=C(Nc1nccs1)C(c1ncn2c1CCC2)N1Cc2c(cc(C#Cc3ccc(CN4CCC(CO)CC4)cc3)cc2C(F)F)C1=O (stereo unspecified)	33 µL/min/1e6 cells
O=C(Nc1nccs1)C(c1ncn2c1CCC2)N1Cc2c(Cl)cccc2C1=O (stereo unspecified)	68 µL/min/1e6 cells
O=C(Nc1nccs1)C(c1ncn2c1CCC2)N1Cc2c(F)cc(C#Cc3ccc(CN4CCC(O)CC4)cc3)cc2C1=O (stereo unspecified)	3.6 µL/min/1e6 cells
O=C(Nc1nccs1)C(c1cc(F)ccc1O)N1Cc2ccccc2C1=O (stereo unspecified)	27 µL/min/1e6 cells
O=C(Nc1nccs1)C(c1ncn2c1CCC2)N1Cc2c(cc(C#Cc3ccc(CN4CCC(CO)CC4)cc3)cc2C(F)(F)F)C1=O (stereo unspecified)	50 µL/min/1e6 cells
CC1(C)CCc2c(C(C(=O)Nc3nccs3)N3Cc4c(cc(C#Cc5ccc(CN6CCC(CO)CC6)cc5)cc4C(F)F)C3=O)ncn21 (stereo unspecified)	19 µL/min/1e6 cells

From ChEMBL document CHEMBL5113538, “Discovery of Novel Allosteric EGFR L858R Inhibitors for the Treatment of Non-Small-Cell Lung Cancer as a Single Agent or in Combination with Osimertinib” (J Med Chem, 2022)
